# Assay results reported in patent US7414064B2, “4-(3,3-dihalo-allyloxy) phenoxy alkyl derivatives” (Syngenta Crop Protection, Inc., priority 2002, dated 2008).
# System: not given
# Test: not given
# Conditions: not given
row,melting point [°C],SMILES
1,108 to 113,O=C(Nc1ccc(OCCCOc2c(Cl)cc(OCC=C(Cl)Cl)cc2Cl)cc1)c1ccco1 [Compound 1.25]
2,112 to 114,O=C(Nc1ccc(OCCCOc2c(Cl)cc(OCC=C(Cl)Cl)cc2Cl)cc1)c1ccccc1Br [Compound 1.21]
3,118 to 121,O=C(Nc1ccc(OCCCOc2c(Cl)cc(OCC=C(Cl)Cl)cc2Cl)cc1)c1ccccc1C(F)(F)F [Compound 1.24]
4,107 to 111,O=C(Nc1ccc(OCCCOc2c(Cl)cc(OCC=C(Cl)Cl)cc2Cl)cc1)c1ccccc1Cl [Compound 1.19]
5,89 to 92,Cc1ccccc1C(=O)Nc1ccc(OCCCOc2c(Cl)cc(OCC=C(Cl)Cl)cc2Cl)cc1 [Compound 1.20]
6,89 to 91,O=C(Nc1ccc(OCCCOc2c(Cl)cc(OCC=C(Cl)Cl)cc2Cl)cc1)c1ccc(F)cc1F [Compound 1.23]
7,95 to 97,O=C(Nc1ccc(OCCCOc2c(Cl)cc(OCC=C(Cl)Cl)cc2Cl)cc1)c1c(F)cccc1F [Compound 1.22]
8,83 to 90,O=C(Nc1ccc(OCCCOc2c(Cl)cc(OCC=C(Cl)Cl)cc2Cl)cc1)c1cccs1 [Compound 1.26]

# System: Heliothis virescens
# Test: Action against Heliothis virescens caterpillars (sprayed soybean plants)
# Format: in vivo
# Conditions: 144 h, 400 ppm spray mixture, caterpillars in the first stage, evaluation 6 days later, read-out: percentage reduction in population and percentage reduction in feeding damage (% activity)
# Method: Young soybean plants are sprayed with an aqueous emulsion spray mixture comprising 400 ppm of test compound. After the spray-coating has dried, the soybean plants are populated with 10 caterpillars of Heliothis virescens in the first stage and placed in a plastics container. Evaluation is made 6 days later. The percentage reduction in population and the percentage reduction in feeding damage (% activity) are determined by comparing the number of dead caterpillars and the feeding damage on the treated plants with that on the untreated plants.
row,SMILES,inhibition at 400 ppm [%]
1,C#CCOC(=O)Nc1ccc(OCCCOc2c(Cl)cc(OCC=C(Cl)Cl)cc2Cl)cc1 [Compound 1.10],> 80
2,COC(=O)Nc1ccc(OCCCOc2c(Cl)cc(OCC=C(Cl)Cl)cc2Cl)cc1 [Compound 1.3],> 80
3,CCOC(=O)Nc1ccc(OCCCOc2c(Cl)cc(OCC=C(Cl)Cl)cc2Cl)cc1 [Compound 1.4],> 80
4,"CC(C)(C)OC(=O)Nc1ccc(OCCCOc2c(Cl)cc(OCC=C(Cl)Cl)cc2Cl)cc1 [Compound 1.6, (4-{3-[2,6-Dichloro-4-(3,3-dichloroallyloxy)-phenoxy]-propoxy}-phenyl)-carbamic acid tert-butyl ester]",> 80
